Entries after “also recorded” stand apart in the source; their conditions may differ. Marks after values point to notes of the source that are not given here.
How the values were obtained:
adult anxious dogs = test: Collars, heart rate and behavior in adult anxious dogs, Latin square, foghorn startle (Example 6); type: in vivo, dog
Description: The objective of this study was to assess efficacy of pheromones/INTEROMONE® compositions to modulate heart rate and behavior in adult anxious dogs (trembling, cowering, shy). The dogs (8.1±0.18 kg; estimated 5-12 yr intact males) were obtained from a local research facility. Body weights and feed intake were recorded. Each dog was housed in a separately ventilated room with a minimum of 12 m^2 of floor space. Heart rate (HR) and surface temperature was measured using a telemetry system (Data Science International, St. Paul, Minn.). Behavior was recorded on a DVR and later reviewed by a trained individual. A scan sample was used with a recording interval of 5 min over 24 hours.
The dogs were treated with four different treatments on different days: Placebo collar (no Pheromone/INTEROMONE®), Pheromone only collar (Serg), Rabbit pheromone as INTEROMONE® collar (RP) (prepared in accordance with Example 1), and INTEROMONE® plus Pheromone collar (Serg+RP) (prepared in accordance with Example 3). At the end of 24 hours with a given collar, each dog was startled with a 110 db foghorn placed 12 cm from the dog's head while behavior and heart rate were recorded. Each dog received each treatment in a Latin square design with repeated measures over time. This model allowed evaluation of effects of treatment, dog, treatment by dog, time, treatment by time and dog by time.

dog = test: Room diffuser containing rabbit pheromone, use on dogs (Example 8); type: in vivo; conditions: 0.02% 2-methylbut-2-enal
Excerpt: A room diffuser formulation containing rabbit pheromone can be prepared according to typical industry techniques described above. Table 4 is the list of ingredients that can be used to prepare a diffuser formulation comprising a rabbit pheromone.

nervous dogs [1] = test: Example 11 Study 2: behavior and heart rate after collar or spray with startle; type: in vivo, dog
Excerpt: (§1) Eight dogs were obtained from a local contract research facility and assessment was made as to general dog health, behavior and heart rate. The dogs were estimated to be 2 to 7 years of age, mixed breed, and weighed averagely 8.1±0.18 kg at the start of the studies. […] Upon arrival each dog was bathed using shampoo containing flea and tick medicine (Hartz Mountain Corp. Secaucus, N.J. USA), and their body hair was shaved. Each dog was kept in a single room, which had 100% fresh air intake and exhaust. The dogs were fed twice (am and pm) per day ad libitum. At that time, the room was cleaned and the dogs obtained extra exercise. Water was available ad libitum.
(§2) Dog behavior was captured on video media at a sampling rate of 30 frames per second. Video records were reviewed in real time (with tape playing 30 frames per second). A scan sampling method was used to record dog behaviors each minute or each 5 minutes depending on the particular study. If the sample period was 120 minutes with four periods (0-30=0, 30-60=30, 60-90=60, and 90-120-90 min), then a scan sample was recorded each 1 minute. If the sample period was 24 hours, then the scan sample was collected each 5 minutes and summarized each hour. For example, pacing is when a dog walks in a stereotyped manner for minutes to hours. Because it was not easy to distinguish walking from pacing, the behaviors were merged. In addition, the video records could not clearly distinguish lying down and awake versus lying down and sleeping, therefore there was no separate description for these two behaviors.
(§3) Heart rate during the studies was measured by the use of a non-invasive telemetry system (Data Science International, St. Paul, Minn., USA). Leads were placed in contact with the dogs' shaved skin. Sensors measured heart rate, surface temperature and general activity. Data were transmitted to a receiving computer in another room. The sampling rate varied with the study, but was 5 seconds for the first two hours after treatments and then each 1 minute for 24 hours (depending on the particular study). For surface temperature measurements of the dog subjects, a thermistor was located against the skin of each dog. It recorded the surface temperature to the neared 0.1° C. on the same interval as the heart rate data.
(§4) Behavior and physiological data (heart rate and surface temperature) were analyzed by least squares analysis of variance using SAS (2011) software and the general linear models procedures. The experimental design of each study was a specialized randomized complete block in a Latin square design with data collected as a split plot over time. Dogs represented the blocks. Each dog received each treatment randomly in successive days or weeks. The statistical model included effects of treatment (TRT), dog, dog by treatment (TRT*DOG; error term used to assess treatment and dog effects), time (HR), treatment by time (TRT*HR), and residual error (SE; used to test remaining effects). Behavior data were collected and analyzed as counts per time period, but for clarity of presentation, the data are reported as percentage of time dogs engaged in each behavior.
In Study 2, the dogs were exposed to the same treatments as in Study 1, except a startle was also applied. An aerosol can (Pet Corrector, The Company of Animals, Surrey, UK) was used to make a loud hissing noise and a spray of liquid as a startle. The protocol involved spraying the Rabbit Pheromone at 0, 30, 60, and 90 min (RP; 1 μg/mL) or collar application (PLACEBO, SERG, or DAPC) at time zero. Each dog was startled at 45 minutes. Data were recorded for 120 minutes. Data reporting periods were: 0 (0-30 min), 30 (30-60 min), and 90 (90-120 min).

nervous dogs [2] = test: Example 11 Study 1: baseline behavior and heart rate after collar or spray; type: in vivo, dog; conditions: for pacing-walking behavior of individual dogs: Study 1, FIG. 3A; for sitting behavior of individual dogs: FIG. 3C; for heart rate of individual dogs: Study 1, dogs 1-4, FIG. 6; for overall dog heart rate and its decline: dogs 1-4, two hours after collar or spray, FIGS. 4, 5
Excerpt: as §1, §2, §3, §4
In Study 1, baseline heart rate data were collected while the dogs each experienced 4 different treatments—a placebo collar (PLACEBO), Pheromone “H” Collar (SERG), Dog Appeasing Pheromone in collar form (DAPC) and the Rabbit Pheromone (RP; 1 μg/mL) formulated into a spray in accordance with Example 8. Each of the four treatments was given to each dog in a random order, with the treatment changing each week. Baseline heart rate and behavior data were collected for 30 minutes before each treatment application (see Table 8) and 2 hours after (see Table 9) (expressed in % of time).

[3] = 120 minutes after startle, SERG, DAPC collars, RP spray 1 μg/mL
[4] = 120 minutes after treatment, no startle, SERG, DAPC collars, RP spray 1 μg/mL

In the case of `C/C=C(\C)C=O` [RP, 2-methylbut-2-enal], the HR after startle (adult anxious dogs; collar 24 h, 110 db foghorn, placebo 157.8±7.2, P<0.01) is reported as 124.5±7.2 bpm, the time pacing (adult anxious dogs; collar, placebo 3.8±0.02, P<0.05) is reported as 3.0±0.2% and the time lying down (adult anxious dogs; collar, placebo 63.2±4.8, P=0.01) is reported as 87.4±5.4 % of time. The “effect on dog HR (summary)” value (adult anxious dogs; collars) was “lowered HR”, the “change in dog behavior” value (dog) was “significant change in behavior towards a calmer demeanor” and the Defecate (nervous dogs [1]; [3]) was 0.0 % of time. For the same compound, the Drink (nervous dogs [1]; [3]) was 3.7 % of time, the Eat (nervous dogs [1]; [3]) was 1.2 % of time and the Lick self (nervous dogs [1]; [3]) was 0.0^b % of time. The Lying down (nervous dogs [1]; [3]) was 46.4 % of time, the Pace-walk (nervous dogs [1]; [3]) was 19.4 % of time and the Sitting (nervous dogs [1]; [3]) was 53.8 % of time. For the same compound, the Standing (nervous dogs [1]; [3]) was 23.4^b % of time, the Urinate (nervous dogs [1]; [3]) was 0.0 % of time and the “lying down and sitting behavior of individual dogs after startle” value (nervous dogs [1]; FIGS. 8 and 9) was “dogs 2, 3, 6 and 8 spent less time lying down but more time sitting after startle”. The “standing behavior after startle” value (nervous dogs [1]; in comparison to Placebo or SERG collars) was “increased standing behavior among RP-sprayed dogs”, the “sitting over time versus other treatments” value (nervous dogs [2]; 2-hour period after collar or spray, FIG. 3D) was “In the 60 minute period after treatment with rabbit pheromone, dogs also sat more than with the other treatments” and the “average time dogs sat” value (nervous dogs [2]; 30 minute period after spray, FIG. 3D) was ~50 % of the time. The Defecate (nervous dogs [2]; [4]) was 0 % of time, the Drink (nervous dogs [2]; [4]) was 0.0 % of time and the Eat (nervous dogs [2]; [4]) was 0.0 % of time. The Lick self (nervous dogs [2]; [4]) was 0 % of time, the Lying down (nervous dogs [2]; [4]) was 58.5 % of time and the Pace-walk (nervous dogs [2]; [4]) was 7.6 % of time. The Sitting (nervous dogs [2]; [4]) was 93.1 % of time, the Standing (nervous dogs [2]; [4]) was 3.1 % of time and the Urinate (nervous dogs [2]; [4]) was 0 % of time. The “pacing-walking behavior of individual dogs” value (nervous dogs [2]; listed as RP spray) was “dog 7 showed reduced pacing-walking; also recorded: increased pacing-walking of dog 1 compared with the DAP collar”, the “pacing-walking behavior of individual dogs” value (nervous dogs [2]; listed as rabbit INTEROMONE® spray) was “Dog 3 increased pacing with Serg, but reduced its pacing with DAP collar and rabbit INTEROMONE® spray; also recorded: Dog 7's pacing was reduced by DAP collar and reduced even more by rabbit INTEROMONE® spray” and the “lying down behavior / activity of individual dogs” value (nervous dogs [2]; Study 1, compared with Placebo, FIG. 3B) was “For dog 2, both SERG and RP reduced lying down behavior significantly; also recorded: For dog 8, only RP increased dog activity and reduced lying down”. For the same compound, the “sitting behavior of individual dogs” value (nervous dogs [2]; Study 1, compared with Placebo, listed as RP spray) was “increased dog sitting in dogs 2 and 8”, the “sitting behavior of individual dogs” value (nervous dogs [2]; Study 1, compared with Placebo, listed as rabbit pheromone) was “dogs 2 and 8 showed increased sitting” and the “heart rate of individual dogs” value (nervous dogs [2]) was “decreased the heart rates of dogs 3 and 4 compared to other treatments”. The “heart rate of individual dogs” value (nervous dogs [2]; listed as Rabbit pheromone) was “decreased heart rate in dog 3”, the “heart rate of individual dogs” value (nervous dogs [2]; listed as rabbit pheromone spray) was “Dog 3 had decreased heart rate” and the speed of calming (nervous dogs [2]; Study 1, spray versus collar) was “calms dogs faster than treatment with DAP collar”. For the same compound, the “heart rate decline (slope of regression equation)” value (nervous dogs [2]; dogs 1-4, FIG. 5, placebo 6 bpm/h) was 24.5 bpm/h, the “overall dog heart rate and its decline” value (nervous dogs [2]) was “had the greatest effect in decreasing dog heart rate” and the “overall dog heart rate and its decline” value (nervous dogs [2]; listed as rabbit pheromone) was “most significantly (P<0.05) reduced overall dog heart rate; also recorded: greater decline in heart rate than Placebo”.

Source: patent publication US8741965B2, “Method of administering a pheromone composition to an animal to modify the animals behavior over an extended period of time” (Sergeant's Pet Care Products, Inc., priority 2011, dated 2014)
